Experimental data taken from patent US20150140005A1, “Methods and Uses for Proprotein Convertase Subtilisin Kexin 9 (PCSK9) Inhibitors” (Cyon Therapeutics Inc., priority 2012, published 2015).

What was measured:
LPS treated LDLR−/− mice = test: Responses to LPS treatment (lipopolysaccharide induced systemic inflammation) in LDLR−/− mice treated with saline or berberine; type: in vivo
Description: Healthy mice had activity level, body temperature, blood pressure, and cardiac function (echocardiography) assessed at baseline (time 0) as detailed below. Mice were then injected intra-peritoneally with LPS (20 mg/kg, E. coli strain 01 II: B4, Sigma™, St. Louis, Mo.). This dose was determined from previous experiments where, in the background strain of C57BL/6 mice, LPS 20 mg/kg delivered intra-peritoneally was the lowest dose, which was lethal in all cases within 12 hours^24. Then activity level and temperature were measured every hour for six hours. At six hours blood pressure was measured by invasive arterial cannulation and cardiac function (echocardiography) was assessed again.
Activity Index: Mice were observed during 2 minutes for posture and activity. 0 (normal) denotes that there are no times with a hunched posture, and the mouse had spontaneous rapid movements interspersed with eating and drinking. 1 (mild) is occasional brief (5-20 seconds) hunched posture, which spontaneously reverted to normal with ongoing spontaneous rapid movements interspersed with eating and drinking. 2 (mild-moderate) was longer (>20 seconds) in the hunched posture which spontaneously reverted to normal with ongoing spontaneous rapid movements interspersed with eating and drinking. 3 (moderate-severe) was nearly continual hunched posture with movement only when subjected to strong external stimuli. 4 (severe) was continual hunched posture without movement.
Temperature: Temperature was measured hourly using an infra-red thermometer (IR-101 La Crosse Technology, La Crosse USA)) held 2-3 mm from the abdomen.
Blood Pressure: At baseline (time 0) mean arterial blood pressure was measured using a non-invasive tail cuff (CODA 2™, Kent Scientific, Torrington, USA). Six hours after LPS injection, mice were anesthetized using inhaled isofluorane (1-3%). Following a small laparatomy, the abdominal aorta was punctured using a 27 gauge needle then a number 2 French micromanometer catheter (Mikro-tip SPR-838™, Millar Instruments Inc., Houston, Tex.) was inserted into the aorta. Mean arterial pressure was derived using analysis software (PVAN 2.9™, Millar Instruments Inc.).
Echocardiography: Mice were lightly anaesthetized using inhaled isofluorane (1-3%) and placed on a warming blanket. M-mode echocardiograms (ECHO) were targeted from 2D echos obtained using the Vevo 770 ECHO (Visualsonics™, Toronto, ON, Canada) operating at a 120 Hz frame rate. Left parasternal 2D left ventricular cross-sectional echocardiographic images were obtained. The position and angle of the echo transducer is maintained by directing the beam just off the tip of the anterior leaflet of the mitral valve and by maintaining internal anatomic landmarks constant. All measurements are taken from M-mode traces at end-expiration. Left ventricular internal dimensions were measured at end-diastole (defined as the onset of the QRS complex in lead II of the simultaneously obtained electrocardiogram) and at end-systole (defined as minimum internal ventricular dimension).
This is consistent with the hypothesis that the benefit derived from the inhibition of PCSK9 is the result of increased availability of LDLR and a subsequent reduction in plasma LDL.

PCSK9 = conditions: intravenous infusion, as early as 8 hours after injection, non-human primates; cited from earlier work
[1] = LDLR−/− mice, 6 hrs after LPS, median (95% CI), n = 4
[2] = LDLR−/− mice, baseline, median (95% CI), n = 4

| Molecule | Activity 6 hrs LPS (LPS treated LDLR−/− mice; [1]) | EF 6 hrs LPS (LPS treated LDLR−/− mice; [1]) | MAP 6 hrs LPS (LPS treated LDLR−/− mice; [1]) | Activity Baseline (LPS treated LDLR−/− mice; [2]) | MAP Baseline (LPS treated LDLR−/− mice; [2]) | Temp. Baseline (LPS treated LDLR−/− mice; [2]) | Differences between saline and berberine mice in responses to LPS (LPS treated LDLR−/− mice; LPS treated LDLR−/− mice, berberine vs saline) | Circulating LDL-C levels (PCSK9) |
| --- | --- | --- | --- | --- | --- | --- | --- | --- |
| COc1ccc2cc3[n+](cc2c1OC)CCc1cc2c(cc1-3)OCO2 [Berberine, berberine] | 0 (−0.8-0.3) | 26.0 (23.0-29.0) | 53 (52-54) | 0 (0-0) | 109 (93-125)^ | 37.0 (36.2-37.9) | minimal differences | – |
| AMG145: Amgen monoclonal antibody specific for the catalytic domain of PCSK9 (antibody, chains of the INN, looked up, V domains shown) VH: EVQLVQSGAEVKKPGASVKVSCKASGYTLTSYGISWVRQAPGQGLEWMGWVSFYNGNTNYAQKLQGRGTMTTDPSTSTAYMELRSLRSDDTAVYYCARGYGMDVWGQGTTVTVSS VL: ESALTQPASVSGSPGQSITISCTGTSSDVGGYNSVSWYQQHPGKAPKLMIYEVSNRPSGVSNRFSGSKSGNTASLTISGLQAEDEADYYCNSYTSTSMVFGGGTKLTVL | – | – | – | – | – | – | – | significant reduction |
